Measurements as given in US12037324B2, “Biarylmethyl heterocycles” (Université de Montréal, priority 2016, dated 2024).
pEC50: −log10 of the molar value.

Legend:
AGTR1 [1] = molecular target: T1, AGTR1 (Homo sapiens, UniProt P30556); assay: DiscoveRx β-arrestin2 recruitment assay (enzyme complementation, Pathunter CHO-K1 AGTR1 β-arrestin cell line); assay type: cell-based; conditions: for DiscoveRx β-arrestin2 Ymax (%): maximal response
T1 construct: host or cells: Pathunter CHO-K1 AGTR1 β-arrestin cell line (CHO-K1)
T1 sequence (P30556 1-359): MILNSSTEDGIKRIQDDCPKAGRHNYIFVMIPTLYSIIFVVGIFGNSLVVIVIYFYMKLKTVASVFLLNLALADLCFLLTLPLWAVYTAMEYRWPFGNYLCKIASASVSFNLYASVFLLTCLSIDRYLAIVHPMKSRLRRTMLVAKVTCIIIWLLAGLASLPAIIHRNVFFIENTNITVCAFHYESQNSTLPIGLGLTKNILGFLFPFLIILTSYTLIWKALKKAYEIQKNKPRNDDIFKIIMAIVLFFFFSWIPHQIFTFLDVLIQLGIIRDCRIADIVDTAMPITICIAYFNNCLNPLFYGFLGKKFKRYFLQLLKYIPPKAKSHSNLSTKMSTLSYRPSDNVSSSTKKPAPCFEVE
How it was run: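 CHO-K1 cells expressing AGTR1 with β-arrestin2 enzyme-complementation reporter, plated 14-16 h ahead in 1% serum medium, then exposed to compounds for 90 min at 37° C. Chemiluminescence read after 1 h detection. EC50 (agonist) or IC50 (antagonist) from 4-parameter logistic fit; activity as percentage of All maximal effect.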

hAT1R [2] = molecular target: T2, hAT1R (Homo sapiens, UniProt P30556); assay: cell-based
T2 sequence (P30556 1-359): T1 sequence (P30556 1-359)

AGTR1 [3] = molecular target: T1, AGTR1; assay: DiscoveRx IP1 accumulation assay (HTRF), agonist mode, Pathunter CHO-K1 AGTR1 β-arrestin cell line; assay type: cell-based; conditions: for pEC50: read-out: IP-1 EC50
How it was run: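 Agonist mode in CHO-K1 AGTR1 β-arrestin cells plated 14-16 h before; compounds at varying concentrations for 90 min at 37° C, IP1 accumulation read by HTRF (D2-conjugate and anti-IP1 cryptate, 20 min room temperature). EC50 from 4-parameter logistic fit; activity given as percentage of maximal AII effect.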

hAT1R [4] = molecular target: T2, hAT1R; assay: BRET β-arrestin2 biosensor assay, higher receptor expression (hAT1R 5 ng/well), HEK293 cells; assay type: cell-based; conditions: for pEC50: High AT1R Expression
hAT1R [5] = molecular target: T2, hAT1R; assay: cell-based; conditions: agonist mode; read-out: BRET P63 EC50
[6] = section of the 42nd table ending at r951, example numbering restarts after the DiscoveRx section, read-out: β-arrestin2 EC50
[7] = DiscoveRx β-arrestin2 recruitment
[8] = Low AT1R Expression, read-out: BRET β-Arrestin2 Low AT1R Expression EC50

Row | Structure (SMILES) | pEC50 (AGTR1 [1]) | pEC50 (hAT1R [2]; [6]) | IP-1 Ymax (%) (AGTR1 [3]) | pEC50 (AGTR1 [3]) | BRET β-Arrestin2 High AT1R Expression Ymax (%) (hAT1R [4]) | pEC50 (hAT1R [4]) | pEC50 (AGTR1 [1]; [7]) | DiscoveRx β-arrestin2 Ymax (%) (AGTR1 [1]; [7]) | pEC50 (hAT1R [2]; [8]) | BRET β-Arrestin2 Low AT1R Expression Ymax (%) (hAT1R [2]; Low AT1R Expression) | pEC50 (hAT1R [5])
1 | Cc1ccnc(-c2ccc(-c3nn[nH]n3)c(-c3ccc(Cn4nc(C)nc4C)cc3)c2)c1 [Example 458, 2-(4′-((3,5-Dimethyl-1H-1,2,4-triazol-1-yl)methyl)-6-(2H-tetrazol-5-yl)-[1,1′-biphenyl]-3-yl)-4-methylpyridine] | 6.60 | 6.41 | – | – | – | – | – | – | – | – | –
2 | CCCCC1=NC2(CCCC2)C(=O)N1Cc1ccc(-c2cc(-c3cccc(C)n3)ccc2-c2nn[nH]n2)cc1 [Example 138] | – | – | 6.3 | 7.27 | 73.2 | 7.24 | 7.87 | 27.9 | < 5.00 | – | –
3 | CCc1nc2c(C)cc(C)nc2n1Cc1ccc(-c2cc(-c3ccccc3OC(F)(F)F)ccc2-c2nn[nH]n2)cc1 [Example 1] | – | – | 18.7 | 7.68 | 86.9 | 8.14 | 7.81 | 44.1 | 7.53 | 61.8 | –
4 | CCc1nc2c(C)cc(C)nc2n1Cc1ccc(-c2cc(-n3ccc(C(F)(F)F)n3)ccc2-c2nnn[nH]2)cc1 [Example 219] | – | 7.48 | 6.9 | 6.93 | – | – | 7.45 | 21.6 | – | – | –
5 | CCCCC1=NC2(CCOC2)C(=O)N1Cc1ccc(-c2cc(-c3ccccc3F)ccc2-c2nnn[nH]2)cc1 (single isomer, unassigned) [Example 149] | – | – | 7.5 | 6.85 | 85.7 | 7.62 | 7.41 | 55.2 | 7.08 | 42.1 | –
6 | CCc1nc2c(C)cc(C)nc2n1Cc1ccc(-c2cc(-c3cccc(C)c3)ccc2C(=O)O)cc1 [Example 182] | – | 7.58 | 6.6 | 6.88 | 90.4 | 8.15 | 7.07 | 74.2 | – | – | –
7 | CCc1nc2c(C)cc(C)nc2n1Cc1ccc(-c2cc(Oc3cccnc3)ccc2-c2noc(=O)[nH]2)cc1 [Example 259] | – | 7.41 | 9.9 | 7.68 | 83.2 | 8.16 | 7.89 | 80.6 | – | – | –
8 | CCc1nc2c(C)cc(C)nc2n1Cc1ccc(-c2cc(C(=O)c3ccccc3)ccc2-c2nnn[nH]2)cc1 [Example 210, (4′-((2-Ethyl-5,7-dimethyl-3H-imidazo[4,5-b]pyridin-3-yl)methyl)-6-(1H-tetrazol-5-yl)-[1,1′-biphenyl]-3-yl)(phenyl)methanone] | – | 7.55 | 14.8 | 7.08 | 88.2 | 8.05 | 8.07 | 48.4 | – | – | –
9 | CCc1nc2c(C)cc(C)nc2n1Cc1ccc(-c2cc(-c3ccccc3F)ccc2-c2nn[nH]n2)cc1 [Example 19] | – | – | 12.2 | 7.56 | 89.8 | 8.62 | 8.12 | 57.9 | 7.92 | 73.7 | –
10 | CCc1nc2c(C)cc(C)nc2n1Cc1ccc(-c2cc(-c3ccccc3OC)ccc2-c2nn[nH]n2)cc1 [Example 5] | – | – | 15.1 | 7.62 | 76.2 | 7.80 | 7.84 | 30.9 | 7.92 | 22.9 | –
11 | CCCCC1=NC2(CCOC2)C(=O)N1Cc1ccc(-c2cc(-c3ccccc3F)ccc2-c2nnn[nH]2)cc1 (single isomer, unassigned) [Example 148] | – | – | 6.1 | – | 72.8 | 7.04 | 6.99 | 34.8 | 6.85 | 17.7 | –
12 | CCc1nc2c(C)cc(C)nc2n1Cc1ccc(-c2cc(-c3ccccc3)ccc2C(=O)O)cc1 [Example 31, 4″-((2-ethyl-5,7-dimethyl-3H-imidazo[4,5-b]pyridin-3-yl)methyl)-[1,1′:3′,1″-terphenyl]-4′-carboxylic acid] | – | – | 12.3 | 6.63 | 85.5 | 7.24 | 7.47 | 55.1 | 7.07 | 42.4 | –
13 | CCc1nc2c(C)cc(C)nc2n1Cc1ccc(-c2cc(-c3cccc(OC)n3)ccc2-c2nn[nH]n2)cc1 [Example 29] | – | – | 12.1 | 7.41 | 82.7 | 7.95 | 8.07 | 29.8 | 7.72 | 42.2 | –
14 | CCCCC1=NC2(CCCC2)C(=O)N1Cc1ccc(-c2cc(-c3cncc(C)c3)ccc2-c2nn[nH]n2)cc1 [Example 129] | – | – | 2.0 | 6.92 | 40.7 | 6.62 | 7.47 | 12.9 | < 5.00 | – | –
15 | Cc1nc(C)n(Cc2ccc(-c3cc(-c4ccccc4)ccc3-c3nn[nH]n3)cc2)n1 [Example 456, 5-(4″-((3,5-Dimethyl-1H-1,2,4-triazol-1-yl)methyl)-[1,1′:3′,1″-terphenyl]-4′-yl)-2H-tetrazole] | 5.73 | 5.71 | – | – | – | – | – | – | – | – | –
16 | Cc1cnn(-c2ccc(-c3nn[nH]n3)c(-c3ccc(Cn4cnnc4C)cc3)c2)c1 [Example 459, 5-(5-(4-Methyl-1H-pyrazol-1-yl)-4′-((3-methyl-4H-1,2,4-triazol-4-yl)methyl)-[1,1′-biphenyl]-2-yl)-2H-tetrazole] | < 5.00 | 5.91 | – | – | – | – | – | – | – | – | –
17 | CCc1nc2c(C)cc(C)nc2n1Cc1ccc(-c2cc(Oc3cncc(OC)c3)ccc2-c2nn[nH]n2)cc1 [Example 261] | – | – | 11.5 | 6.11 | 62.3 | 7.40 | 6.86 | 17.3 | – | – | < 4.00
18 | Cc1cnn(-c2ccc(-c3nn[nH]n3)c(-c3ccc(Cn4nc(C)nc4C)cc3)c2)c1 [Example 457, 5-(4′-((3,5-Dimethyl-1H-1,2,4-triazol-1-yl)methyl)-5-(4-methyl-1H-pyrazol-1-yl)-[1,1′-biphenyl]-2-yl)-2H-tetrazole] | 5.94 | 6.00 | – | – | – | – | – | – | – | – | –
19 | CCc1nc2c(C)cc(C)nc2n1Cc1ccc(-c2cc(-n3cc(CCO)nn3)ccc2-c2nnn[nH]2)cc1 [Example 226] | – | – | 6.7 | 6.30 | 35.0 | 6.46 | 6.62 | 17.5 | – | – | < 4.00
